The results in this text go back to patent EP0549040A1, “Methods of making 4" derivatives of 9-deoxo-8a-aza-8a-alkyl-8a-homoerythromycin A” (MERCK & CO. INC., priority 1991, dated 1993).

Common to all, as to assay: liquid turbidimetric microtiter MIC determination in broth media
Common to all, as to type: cell-based

The subject of assay [1] is Enterococcus faecalis MB 5407. An excerpt: (§1) The antibacterial activities of the compounds of Examples 8 and 10 against a panel of aerobic Gram positive and negative bacteria is shown in the following Table. The assay employs a liquid turbidimetric microtiter method for the determination of the minimum inhibitory concentration (MIC) in broth media. […] The MIC is generally not an absolute value but rather a concentration range that falls within a two-fold dilution limit. Generally twelve two-fold dilutions of the test compound are employed with the initial concentration set at 128 mcg/ml.

Assay [2] has as its system Staphylococcus epidermidis MB 5414.
Description: as §1

In assay [3] the test system is Haemophilus influenzae MB 5363.
Description: as §1

The subject of assay [4] is Staphylococcus aureus MB 2865.
Description: as §1

Assay [5] deals with Enterobacter cloacae CL 4298.
Description: as §1

The subject of assay [6] is Klebsiella pneumoniae MB 4005.
Description: as §1

A further assay deals with Escherichia coli MB 2884.
Description: as §1

Assay [7] deals with Streptococcus pyogenes MB 2874.
Description: as §1

Assay [8] has as its system Haemophilus influenzae AT 43163.
Description: as §1

Assay [9] deals with Streptococcus pneumoniae CL 2883.
Description: as §1

The next assay concerns Escherichia coli MB 4926. The note with it: MB4926, Table I.
Description: as §1

Assay [10] relates to Enterococcus faecium MB 5416. To be noted: MB5416, Table I.
Description: as §1

The subject of assay [11] is Staphylococcus haemolyticus MB 5412. To be noted: MB5412, Table I.
Description: as §1

Assay [12] concerns Steptococcus viridans CL 2943. To be noted: Table I.
Description: as §1

For assay [13], the system named is Streptococcus agalactiae CL 1343. The note with it: CL1343, Table I.
Description: as §1

For assay [14], the system named is Streptococcus pyogenes MB 54061. To be noted: MB54061, Table I.
Description: as §1

The subject of assay [15] is Pseudomonas stutzeri MB 1231. To be noted: Stutzerimonas stutzeri, MB1231, Table I.
Description: as §1

The mark [16] stands for this setting: MB2884, Table II, MIC, read-out: In vitro Activity.
Where [17] appears, read: MB5407, Table I, Enterococcus faecalis MB 5407, read-out: MIC Values.
The mark [18] stands for this setting: MB5414, Table I, Staphylococcus epidermidis MB 5414, read-out: MIC Values.
Setting [19] is: MB2865, Table I, Staphylococcus aureus MB 2865, read-out: MIC Values.
Setting [20] is: MB4005, Table I, Klebsiella pneumoniae MB 4005, read-out: MIC Values.
[21] abbreviates: MB2884, Table I, read-out: MIC Values.
Setting [22] is: MB2874, Table I, Streptococcus pyogenes MB 2874, read-out: MIC Values.
The mark [23] stands for this setting: CL2883, Table I, Streptococcus pneumoniae CL 2883, read-out: MIC Values.
Where [24] appears, read: MB5407, Table II, MIC, Enterococcus faecalis MB 5407, read-out: In vitro Activity.
Setting [25] is: MB5414, Table II, MIC, Staphylococcus epidermidis MB 5414, read-out: In vitro Activity.
The mark [26] stands for this setting: MB5363, Table II, MIC, Haemophilus influenzae MB 5363, read-out: In vitro Activity.
The mark [27] stands for this setting: MB2865, Table II, MIC, Staphylococcus aureus MB 2865, read-out: In vitro Activity.
[28] abbreviates: CL4298, Table II, MIC, Enterobacter cloacae CL 4298, read-out: In vitro Activity.
Setting [29] is: MB4005, Table II, MIC, Klebsiella pneumoniae MB 4005, read-out: In vitro Activity.
The mark [30] stands for this setting: MB2874, Table II, MIC, Streptococcus pyogenes MB 2874, read-out: In vitro Activity.
The mark [31] stands for this setting: AT43163, Table II, MIC, Haemophilus influenzae AT 43163, read-out: In vitro Activity.
Setting [32] is: CL2883, Table II, MIC, Streptococcus pneumoniae CL 2883, read-out: In vitro Activity.

In brackets after ≈: the same amount, converted by molar mass. Like-named read-outs stand apart in the source and are kept apart here.

Take “4''-epi-9-deoxo-8a-aza-8a-methyl-8a-homoerythromycin A [Example 15]”: the “In vitro Activity” value was 1 µg/mL in assay [1] (Table II, MIC, Enterococcus faecalis MB 5407); 0.25 µg/mL in [2] (Table II, MIC, Staphylococcus epidermidis MB 5414); 0.5 µg/mL in assay [3] (Table II, MIC, Haemophilus influenzae MB 5363); 0.5 µg/mL in [4] (Table II, MIC, Staphylococcus aureus MB 2865); 0.5 µg/mL in assay [5] (Table II, MIC, Enterobacter cloacae CL 4298); 1 µg/mL in assay [6] (Table II, MIC, Klebsiella pneumoniae MB 4005). The “In vitro Activity” value was 1 µg/mL with Escherichia coli MB 2884 (Table II, MIC); “≦0.06 mcg/ml” in [7] (Table II, MIC, Streptococcus pyogenes MB 2874); 0.5 µg/mL in assay [8] (Table II, MIC, Haemophilus influenzae AT 43163); “≦0.06 mcg/ml” in [9] (Table II, MIC, Streptococcus pneumoniae CL 2883).

`CC[C@H]1OC(=O)[C@H](C)[C@@H](O[C@H]2C[C@@](C)(OC)[C@@H](O)[C@H](C)O2)[C@H](C)[C@@H](O[C@@H]2O[C@H](C)C[C@H](N(C)C)[C@H]2O)[C@](C)(O)C[C@@H](C)C(=O)[C@H](C)[C@@H](O)[C@]1(C)O` [Erythromycin A, erythromycin A]: the MIC in [1] (Enterococcus faecalis, MB5407, read-out: In vitro Activity) was 1 µg/mL (≈ 1.36 µM); in assay [2] (Staphylococcus epidermidis, MB5414, read-out: In vitro Activity), 0.12 µg/mL (≈ 0.164 µM); in [3] (Haemophilus influenzae, MB5363, read-out: In vitro Activity), 2 µg/mL (≈ 2.73 µM); in assay [4] (Staphylococcus aureus, MB2865, read-out: In vitro Activity), 0.12 µg/mL (≈ 0.164 µM); in assay [5] (Enterobacter cloacae, CL4298, read-out: In vitro Activity), 16 µg/mL (≈ 21.8 µM); in assay [6] (Klebsiella pneumoniae, MB4005, read-out: In vitro Activity) it was 32 µg/mL (≈ 43.6 µM). Besides, the MIC was 16 µg/mL (≈ 21.8 µM) in the assay with Escherichia coli MB 2884 (setting [16]); not above 0.06 µg/mL in assay [7] (Streptococcus pyogenes, MB2874, read-out: In vitro Activity); 2 µg/mL (≈ 2.73 µM) in assay [8] (Haemophilus influenzae, AT43163, read-out: In vitro Activity); not above 0.06 µg/mL in assay [9] (Streptococcus pneumoniae, CL2883, read-out: In vitro Activity).

On to `CC[C@H]1OC(=O)[C@H](C)[C@@H](O[C@H]2C[C@@](C)(OC)[C@@H](O)[C@H](C)O2)[C@H](C)[C@@H](O[C@@H]2O[C@H](C)C[C@H](N(C)C)[C@H]2O)[C@](C)(O)C[C@@H](C)NC[C@H](C)[C@@H](O)[C@]1(C)O` [Example 9, 9-Deoxo-8a-aza-8a-homoerythromycin A], for which the MIC in [1] (setting [17]) turned out to be 8 µg/mL (≈ 10.9 µM); in assay [2] (setting [18]) it was 1 µg/mL (≈ 1.36 µM); with Escherichia coli MB 4926 it was 2 µg/mL (≈ 2.72 µM); in assay [10], 0.25 µg/mL (≈ 0.34 µM); in assay [11], 0.5 µg/mL (≈ 0.68 µM); in assay [12], 8 µg/mL (≈ 10.9 µM). Also, the MIC was not above 0.06 µg/mL in assay [13]; 0.5 µg/mL (≈ 0.68 µM) in assay [4] (setting [19]); 8 µg/mL (≈ 10.9 µM) in assay [6] (setting [20]); 4 µg/mL (≈ 5.44 µM) in the assay with Escherichia coli MB 2884 (setting [21]); 128 µg/mL (≈ 174 µM) in assay [14]; not above 0.06 µg/mL in assay [7] (setting [22]). The MIC in [9] (setting [23]) and in assay [15] was not above 0.06 µg/mL throughout.

As to `CC[C@H]1OC(=O)[C@H](C)[C@@H](O[C@H]2C[C@@](C)(OC)[C@@H](O)[C@H](C)O2)[C@H](C)[C@@H](O[C@@H]2O[C@H](C)C[C@H](N(C)C)[C@H]2O)[C@](C)(O)C[C@@H](C)N(C)C[C@H](C)[C@@H](O)[C@]1(C)O` [Example 10, 9-Deoxo-8a-aza-8a-methyl-8a-homoerythromycin A], the MIC in assay [1] (setting [17]) was determined as 4 µg/mL (≈ 5.34 µM); in assay [2] (setting [18]) it was 1 µg/mL (≈ 1.34 µM); with Escherichia coli MB 4926, 0.06 µg/mL (≈ 0.0801 µM); in assay [10], 0.25 µg/mL (≈ 0.334 µM); in assay [11], 0.5 µg/mL (≈ 0.668 µM); in [12] it was 1 µg/mL (≈ 1.34 µM). Moreover, the MIC in [13] is not above 0.06 µg/mL; in assay [4] (setting [19]), 0.5 µg/mL (≈ 0.668 µM); in assay [6] (setting [20]) it was 2 µg/mL (≈ 2.67 µM); in the assay on Escherichia coli MB 2884 (setting [21]) it was 1 µg/mL (≈ 1.34 µM); in [14] it was 128 µg/mL (≈ 171 µM); in [7] (setting [22]) it was not above 0.06 µg/mL. Further, the MIC in [9] (setting [23]) and in assay [15] was not above 0.06 µg/mL throughout.

Consider `CC[C@H]1OC(=O)[C@H](C)[C@@H](O[C@H]2C[C@@](C)(OC)C(N)[C@H](C)O2)[C@H](C)[C@@H](O[C@@H]2O[C@H](C)C[C@H](N(C)C)[C@H]2O)[C@](C)(O)C[C@@H](C)N(C)C[C@H](C)[C@@H](O)[C@]1(C)O` (stereo partly drawn) [Example 17, 4''-Deoxy-4''-amino-9-deoxo-8a-aza-8a-methyl-8a-homoerythromycin A], for which the MIC is 4 µg/mL (≈ 5.35 µM) in assay [1] (setting [24]); 0.5 µg/mL (≈ 0.668 µM) in assay [2] (setting [25]); 0.5 µg/mL (≈ 0.668 µM) in assay [3] (setting [26]); 1 µg/mL (≈ 1.34 µM) in assay [4] (setting [27]); not above 0.06 µg/mL in assay [5] (setting [28]); 0.12 µg/mL (≈ 0.16 µM) in assay [6] (setting [29]). The MIC is 0.12 µg/mL (≈ 0.16 µM) with Escherichia coli MB 2884 (setting [16]), not above 0.06 µg/mL in assay [7] (setting [30]), 0.25 µg/mL (≈ 0.334 µM) in assay [8] (setting [31]) and not above 0.06 µg/mL in assay [9] (setting [32]).

Turning to `CC[C@H]1OC(=O)[C@H](C)[C@@H](O[C@H]2C[C@@](C)(OC)[C@@H](N)[C@H](C)O2)[C@H](C)[C@@H](O[C@@H]2O[C@H](C)C[C@H](N(C)C)[C@H]2O)[C@](C)(O)C[C@@H](C)N(C)C[C@H](C)[C@@H](O)[C@]1(C)O` [Example 19, 4''-Deoxy-4''-(S) - amino-9-deoxo-8a-aza-8a-methyl-8a-homoerythromycin A], the MIC in assay [1] (setting [24]) was 2 µg/mL (≈ 2.67 µM); in [2] (setting [25]) it was 0.51 µg/mL (≈ 0.682 µM); in assay [3] (setting [26]), 0.25 µg/mL (≈ 0.334 µM); in assay [4] (setting [27]) it was 1 µg/mL (≈ 1.34 µM); in assay [5] (setting [28]), not above 0.06 µg/mL; in assay [6] (setting [29]), 0.12 µg/mL (≈ 0.16 µM). In addition, the MIC in the assay on Escherichia coli MB 2884 (setting [16]) was 0.12 µg/mL (≈ 0.16 µM); in assay [7] (setting [30]) it was not above 0.06 µg/mL; in [8] (setting [31]), 0.25 µg/mL (≈ 0.334 µM); in assay [9] (setting [32]), not above 0.06 µg/mL.

For the molecule `CC[C@H]1OC(=O)[C@H](C)[C@@H](O[C@H]2C[C@@](C)(OC)[C@H](N)[C@H](C)O2)[C@H](C)[C@@H](O[C@@H]2O[C@H](C)C[C@H](N(C)C)[C@H]2O)[C@](C)(O)C[C@@H](C)N(C)C[C@H](C)[C@@H](O)[C@]1(C)O` [Example 20, 4''-Deoxy-4''-(R) - amino-9-deoxo-8a-aza-8a-methyl-8a-homoerythromycin A], the MIC in [1] (setting [24]) is 2 µg/mL (≈ 2.67 µM); in assay [2] (setting [25]) it was 0.5 µg/mL (≈ 0.668 µM); in assay [3] (setting [26]) it was 0.5 µg/mL (≈ 0.668 µM); in [4] (setting [27]), 1 µg/mL (≈ 1.34 µM); in assay [5] (setting [28]), 0.12 µg/mL (≈ 0.16 µM); in [6] (setting [29]), 0.25 µg/mL (≈ 0.334 µM). For the same molecule, the MIC in the assay with Escherichia coli MB 2884 (setting [16]) was 0.25 µg/mL (≈ 0.334 µM); in assay [7] (setting [30]), not above 0.06 µg/mL; in assay [8] (setting [31]) it was 0.25 µg/mL (≈ 0.334 µM); in [9] (setting [32]) it was not above 0.06 µg/mL.
